ChEMBL document CHEMBL4622883, “Bisbenzylisoquinoline alkaloids and P-glycoprotein function: A structure activity relationship study” (Bioorg Med Chem, 2020)

Assays:
Assay type in all cases: cell-based; call rule not given here
[1] = target: T1, ATP-dependent translocase ABCB1 (Homo sapiens, UniProt P08183); assay: Inhibition of P-glycoprotein-mediated Rhodamine-123 efflux in human MOLT4/DNR cells assessed as inhibition of P-glycoprotein efflux function at 0.3 uM incubated for 1 hr by flow cytometry
T1 sequence (P08183 whole entry): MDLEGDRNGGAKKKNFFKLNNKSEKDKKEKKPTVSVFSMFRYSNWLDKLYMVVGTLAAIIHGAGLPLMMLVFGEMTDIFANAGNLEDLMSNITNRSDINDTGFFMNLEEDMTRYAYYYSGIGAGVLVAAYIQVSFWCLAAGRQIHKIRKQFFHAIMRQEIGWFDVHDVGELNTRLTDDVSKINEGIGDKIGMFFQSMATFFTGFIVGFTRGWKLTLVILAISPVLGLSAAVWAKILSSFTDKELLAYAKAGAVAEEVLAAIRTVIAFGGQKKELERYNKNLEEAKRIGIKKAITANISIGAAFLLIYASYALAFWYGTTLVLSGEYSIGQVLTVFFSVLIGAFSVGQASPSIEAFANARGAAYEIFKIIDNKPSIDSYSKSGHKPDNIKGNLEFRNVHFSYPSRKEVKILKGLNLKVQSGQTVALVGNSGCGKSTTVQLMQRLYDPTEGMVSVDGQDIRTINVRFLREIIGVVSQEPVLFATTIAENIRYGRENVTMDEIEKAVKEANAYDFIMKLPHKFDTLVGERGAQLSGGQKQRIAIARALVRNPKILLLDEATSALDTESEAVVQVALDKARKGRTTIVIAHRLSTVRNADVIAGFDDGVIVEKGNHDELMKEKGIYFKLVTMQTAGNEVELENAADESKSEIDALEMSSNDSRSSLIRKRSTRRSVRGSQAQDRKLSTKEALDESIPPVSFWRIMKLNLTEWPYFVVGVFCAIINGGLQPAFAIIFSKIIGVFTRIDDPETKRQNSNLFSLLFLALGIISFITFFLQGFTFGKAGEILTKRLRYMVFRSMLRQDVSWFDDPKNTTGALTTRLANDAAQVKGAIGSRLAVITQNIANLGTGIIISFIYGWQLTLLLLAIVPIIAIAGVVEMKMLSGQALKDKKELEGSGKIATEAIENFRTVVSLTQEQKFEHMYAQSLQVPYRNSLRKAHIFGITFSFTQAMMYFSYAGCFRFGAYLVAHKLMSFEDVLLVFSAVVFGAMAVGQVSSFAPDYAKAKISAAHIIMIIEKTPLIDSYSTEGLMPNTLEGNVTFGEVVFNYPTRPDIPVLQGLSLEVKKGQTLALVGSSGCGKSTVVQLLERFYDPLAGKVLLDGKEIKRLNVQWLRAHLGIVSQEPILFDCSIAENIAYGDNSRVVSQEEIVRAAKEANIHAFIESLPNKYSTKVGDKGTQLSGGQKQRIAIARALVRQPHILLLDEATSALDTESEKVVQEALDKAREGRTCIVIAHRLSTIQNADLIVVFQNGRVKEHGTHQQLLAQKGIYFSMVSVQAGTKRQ

[2] = target: T1, ATP-dependent translocase ABCB1; assay: Inhibition of P-glycoprotein-mediated Rhodamine-123 efflux in human MOLT4/DNR cells assessed as inhibition of P-glycoprotein efflux function at 1 uM incubated for 1 hr by flow cytometry
[3] = target: T1, ATP-dependent translocase ABCB1; assay: Inhibition of P-glycoprotein-mediated Rhodamine-123 efflux in human MOLT4/DNR cells assessed as inhibition of P-glycoprotein efflux function at 10 uM incubated for 1 hr by flow cytometry
[4] = target: T1, ATP-dependent translocase ABCB1; assay: Inhibition of P-glycoprotein-mediated Rhodamine-123 efflux in human MOLT4/DNR cells assessed as Rhodamine-123 accumulation incubated for 1 hr by flow cytometry

Row | Structure (SMILES) | inhibition (INH) [1] | inhibition (INH) [2] | inhibition (INH) [3] | inhibition (INH) [4]
1 | COc1ccc2cc1Oc1ccc(cc1)C[C@H]1c3cc(c(OC)cc3CCN1C)Oc1c(OC)c(OC)cc3c1[C@@H](C2)N(C)CC3 | Not Active | Not Active | Active | –
2 | COc1ccc2cc1Oc1ccc(cc1)C[C@H]1c3c(cc4c(c3Oc3cc5c(cc3OC)CCN(C)[C@@H]5C2)OCO4)CCN1C [CEPHARANTHINE] | – | Not Active | Active | –
3 | COc1ccc2cc1Oc1ccc(cc1)C[C@H]1c3cc(c(OC)cc3CCN1C)Oc1c(O)c(OC)cc3c1[C@H](C2)N(C)CC3 [FANGCHINOLINE] | – | Not Active | Active | –
4 | COc1cc2c3cc1Oc1c(OC)c(OC)cc4c1[C@@H](Cc1ccc(O)c(c1)Oc1ccc(cc1)C[C@@H]3N(C)CC2)N(C)CC4 [BERBAMINE] | Not Active | Not Active | Active | –
5 | COc1cc2c(cc1OC)[C@@H](Cc1ccc(Oc3cc(C[C@@H]4c5cc(OC)c(OC)cc5CCN4C)ccc3O)cc1)N(C)CC2 [DAURICINE] | – | – | Active | –
6 | COc1cc2c(cc1OC)[C@@H](Cc1ccc(O)cc1)N(C)CC2 | – | – | Active | –
7 | COc1ccc2cc1Oc1ccc(cc1)C[C@H]1c3cc(c(OC)cc3CCN1C)Oc1c(OC)c(OC)cc3c1[C@H](C2)N(C)CC3 [FANCHININ] | Active | Active | Active | Dose-dependent effect
